Drawing on patent publication US20250320184A1 (SIRONAX LTD., priority 2022, published 2025), this text covers IC50 for 37 molecules.

The target in the assay is T1, SARM1 (50-724) (Homo sapiens, UniProt Q6SZW1).
T1 sequence (Q6SZW1 50-724): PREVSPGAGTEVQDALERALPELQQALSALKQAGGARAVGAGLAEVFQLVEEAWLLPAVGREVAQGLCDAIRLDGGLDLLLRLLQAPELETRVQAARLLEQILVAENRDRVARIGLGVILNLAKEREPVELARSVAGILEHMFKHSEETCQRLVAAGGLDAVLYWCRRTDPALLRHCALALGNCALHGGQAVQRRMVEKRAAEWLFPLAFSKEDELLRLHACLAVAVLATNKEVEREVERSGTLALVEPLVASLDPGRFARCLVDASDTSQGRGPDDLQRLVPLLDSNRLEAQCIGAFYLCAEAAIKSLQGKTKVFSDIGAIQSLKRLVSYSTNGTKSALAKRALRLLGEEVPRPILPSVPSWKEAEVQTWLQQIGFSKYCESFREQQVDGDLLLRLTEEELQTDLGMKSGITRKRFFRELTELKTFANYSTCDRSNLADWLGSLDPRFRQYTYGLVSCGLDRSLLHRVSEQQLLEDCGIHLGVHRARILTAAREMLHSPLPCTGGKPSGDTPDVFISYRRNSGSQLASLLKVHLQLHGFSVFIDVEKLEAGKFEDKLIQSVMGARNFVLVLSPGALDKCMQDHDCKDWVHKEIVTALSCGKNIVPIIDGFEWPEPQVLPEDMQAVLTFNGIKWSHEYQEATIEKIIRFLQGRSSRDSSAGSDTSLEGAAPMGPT
Briefly: biochemical.

Procedure: An enzymatic assay was performed in a 384-well plate using Dulbecco's phosphate-buffered saline (PBS) as the reaction buffer. […] The reaction was initiated by adding a mixture of 200 μM nicotinamide mononucleotide (NMN) as activator and 100 μM NAD^+ as substrate. After 1 h of incubation at room temperature, the reaction was terminated with 10 times volume of 70% acetonitrile, then centrifuged at 3800 rpm for 10 min.

Take `O=C1NCCc2ccc(NS(=O)(=O)c3cccc(Cl)c3Cl)cc21` [Compound 20, 2,3-dichloro-N-(1-oxo-1,2,3,4-tetrahydroisoquinolin-7-yl)benzenesulfonamide]: the half-maximal inhibitory concentration (IC50) was less than 100 nM.

On to `CC(Nc1ccc2cc[nH]c(=O)c2c1)c1cnc(Cl)c(Cl)c1` (racemic) [Example 107, 7-((1-(5,6-dichloropyridin-3-yl)ethyl)amino)isoquinolin-1(2H)-one], for which the 50% inhibitory concentration (IC50) was in the range of 100 to 500 nM.

On to `CC(Nc1ccc2c(c1)C(=O)NC2(C)C)c1nc(Cl)c(Cl)s1` (racemic) [Compound 278, 6-[1-(4,5-dichlorothiazol-2-yl)ethylamino]-3,3-dimethyl-isoindolin-1-one], for which the IC50 is less than 100 nM.

Molecule `CC(Nc1ccc2cc[nH]c(=O)c2c1)c1nn2c(c1Cl)CCCC2` (racemic) [Compound 232, 7-((1-(3-chloro-4,5,6,7-tetrahydropyrazolo[1,5-a]pyridin-2-yl)ethyl)amino)isoquinolin-1(2H)-one] came in with an IC50 of 100 to 500 nM.

`Clc1cccc(C(Nc2ccc3cccnc3c2)C2CC2)c1Cl` (stereo not shown) [Example 180, N-(cyclopropyl(2,3-dichlorophenyl)methyl)quinolin-7-amine] came in with an IC50 of 100 to 500 nM.

`Cc1c2ccc(NC(C)c3nc(Cl)c(Cl)s3)cc2nn1[C@@H]1CC[C@@H](O)C1` (stereo in doubt) [Compound 335, 3-(6-((1-(4,5-dichlorothiazol-2-yl)ethyl)amino)-3-methyl-2H-indazol-2-yl)cyclopentan-1-ol]: the half-inhibitory concentration (IC50) is less than 100 nM.

With `CC(Nc1ccc2cc[nH]c(=O)c2c1)c1cccc(F)c1Cl` (racemic) [Example 139, 7-((1-(2-chloro-3-fluorophenyl)ethyl)amino)isoquinolin-1(2H)-one], the half-maximal inhibitory concentration (IC50) was in the range of 100 to 500 nM.

Consider `CC(Nc1cc(F)c2nc[nH]c(=O)c2c1)c1nccc(Cl)c1Cl` (racemic) [Compound 352, 6-((1-(3,4-dichloropyridin-2-yl)ethyl)amino)-8-fluoroquinazolin-4(3H)-one], for which the half-maximal inhibitory concentration (IC50) is less than 100 nM.

`O=C1NCCc2ccc(NS(=O)(=O)c3ccccc3Cl)cc21` [Example 6A, 2-chloro-N-(1-oxo-1,2,3,4-tetrahydroisoquinolin-7-yl)benzenesulfonamide]: the IC50 was greater than 1000 nM.

`Cc1c(F)cccc1S(=O)(=O)Nc1cccc(N2CCNC2=O)c1` [Compound 46, 3-fluoro-2-methyl-N-(3-(2-oxoimidazolidin-1-yl)phenyl)benzenesulfonamide] gave an IC50 greater than 1000 nM.

In turn, `O=c1[nH]ccc2ccc(NS(=O)(=O)c3cccc(Cl)c3Cl)cc12` [Compound 22, 2,3-dichloro-N-(1-oxo-1,2-dihydroisoquinolin-7-yl)benzenesulfonamide] yielded an IC50 of less than 100 nM.

The molecule `Cc1ccc(Cl)c(S(=O)(=O)Nc2ccc3cc[nH]c(=O)c3c2)c1Cl` [Compound 37, 2,6-dichloro-3-methyl-N-(1-oxo-2H-isoquinolin-7-yl)benzenesulfonamide] yielded an IC50 of less than 100 nM.

`Cc1cc(F)cc(C(Nc2ccc3c(c2)C(=O)NCC3)c2ccncc2)c1` (stereo not shown) [Example 177, 7-(((3-fluoro-5-methylphenyl)(pyridin-4-yl)methyl)amino)-3,4-dihydroisoquinolin-1(2H)-one]: the IC50 is greater than 1000 nM.

In the case of `CC(Nc1ccc2c(c1)C(=O)NCC2)c1cccc(F)c1F` (racemic) [Example 106, 7-((1-(2,3-difluorophenyl)ethyl)amino)-3,4-dihydroisoquinolin-1(2H)-one], the half-maximal inhibitory concentration (IC50) is greater than 1000 nM.

`CC1(C)CN(C(=O)C2(C(N)=O)CC2)c2cc(NS(=O)(=O)c3cccc(Cl)c3Cl)ccc21` [Compound 313, 1-(6-((2,3-dichlorophenyl)sulfonamido)-3,3-dimethylindoline-1-carbonyl)cyclopropane-1-carboxamide] showed an IC50 of less than 100 nM.

`CC1(C)CN(C(=O)c2ccccn2)c2cc(NS(=O)(=O)c3cccc(Cl)c3Cl)ccc21` [Compound 281, 2,3-dichloro-N-(3,3-dimethyl-1-picolinoylindolin-6-yl)benzenesulfonamide] registered a concentration for half-maximal inhibition (IC50) of less than 100 nM.

As to `CC(Nc1ccc2cc[nH]c(=O)c2c1)c1nc(Cl)n(C)c1Cl` (racemic) [Compound 308, 7-((1-(2,5-dichloro-1-methyl-1H-imidazol-4-yl)ethyl)amino)isoquinolin-1(2H)-one], the IC50 lay in the range of 100 to 500 nM.

As to `CC(Nc1ccc2cc[nH]c(=O)c2c1)c1nn(C)c(C(F)F)c1Cl` (racemic) [Compound 325, 7-((1-(4-chloro-5-(difluoromethyl)-1-methyl-1H-pyazol-3-yl)ethyl)amino)isoquinolin-1(2H)-one], the 50% inhibitory concentration (IC50) was less than 100 nM.

`CC(Nc1ccc2ccn(CCO)c(=O)c2c1)c1nc(Cl)c(Cl)s1` (racemic) [Compound 305, 7-((1-(4,5-dichlorothiazol-2-yl)ethyl)amino)-2-(2-hydroxyethyl)isoquinolin-1(2H)-one] yielded an IC50 of less than 100 nM.

As to `CC1Cc2ccc(NS(=O)(=O)c3cccc(Cl)c3Cl)cc2C(=O)N1` (stereo not shown) [Compound 19, 2,3-dichloro-N-(3-methyl-1-oxo-1,2,3,4-tetrahydroisoquinolin-7-yl)benzenesulfonamide], the IC50 lay within 100 to 500 nM.

`CC(Nc1cccc(-c2cccnn2)c1)c1cccc(Cl)c1Cl` (racemic) [Example 150, N-(1-(2,3-dichlorophenyl)ethyl)-3-(pyridazin-3-yl)aniline]: the IC50 is greater than 1000 nM.

Take `Cc1c2ccc(NC(C)c3snc(Cl)c3Cl)cc2nn1CC(N)=O` (racemic) [Compound 341, 2-(6-((1-(3,4-dichloroisothiazol-5-yl)ethyl)amino)-3-methyl-2H-indazol-2-yl)acetamide]: the half-inhibitory concentration (IC50) is less than 100 nM.

The molecule `CC(Nc1ccc2nc[nH]c(=O)c2c1)c1cccc(Cl)c1Cl` (racemic) [Example 128, 6-((1-(2,3-dichlorophenyl)ethyl)amino)quinazolin-4(3H)-one] yielded an IC50 of less than 100 nM.

In turn, `CC(Nc1ccc2cc[nH]c(=O)c2c1)c1nc(Cl)c(Cl)n1C` (racemic) [Compound 233, 7-((1-(4,5-dichloro-1-methyl-1H-imidazol-2-yl)ethyl)amino)isoquinolin-1(2H)-one] yielded an IC50 of 100 to 500 nM.

As to `Cc1n[nH]c(=O)c2cc(NC(C)c3nc(Cl)c(Cl)s3)ccc12` (racemic) [Example 223, 7-((1-(4,5-dichlorothiazol-2-yl)ethyl)amino)-4-methylphthalazin-1(2H)-one], the IC50 was less than 100 nM.

In turn, `Cc1nn(CC(N)=O)c(=O)c2cc(NC(C)c3c(Cl)ccc(F)c3Cl)ccc12` (racemic) [Compound 300, 2-(7-((1-(2,6-dichloro-3-fluorophenyl)ethyl)amino)-4-methyl-1-oxophthalazin-2(1H)-yl)acetamide] had a 50% inhibitory concentration (IC50) of less than 100 nM.

For the molecule `Cc1ccnc2cc(NS(=O)(=O)c3cccc(Cl)c3Cl)ccc12` [Compound 16, 2,3-dichloro-N-(4-methylquinolin-7-yl)benzenesulfonamide], the IC50 was 100 to 500 nM.

For `Cc1n[nH]c(=O)c2cc(N[C@@H](C)c3nc(Cl)c(Cl)s3)ccc12` (single isomer, unassigned) [Example 239A], the 50% inhibitory concentration (IC50) was less than 100 nM.

Molecule `Cc1c(C#N)sc(C(C)Nc2ccc3c(C)n[nH]c(=O)c3c2)c1Cl` (racemic) [Compound 350, 4-chloro-3-methyl-5-(1-((1-methyl-4-oxo-3,4-dihydrophthalazin-6-yl)amino)ethyl)thiophene-2-carbonitrile] displayed an IC50 of 100 to 500 nM.

`O=S(=O)(Nc1ccc2cc[nH]c2c1)c1cccc(Cl)c1Cl` [Compound 11, 2,3-dichloro-N-(1H-indol-6-yl)benzenesulfonamide] displayed an IC50 of less than 100 nM.

In turn, `CC1(C)C(=O)Nc2cc(NC(CO)c3c(Cl)ccc(F)c3Cl)ccc21` (racemic) [Example 238, 6-((1-(2,6-dichloro-3-fluorophenyl)-2-hydroxyethyl)amino)-3,3-dimethylindolin-2-one] showed a 50% inhibitory concentration (IC50) of less than 100 nM.

The molecule `Cc1c(F)cccc1S(=O)(=O)Nc1ccc2cn[nH]c2c1` [Compound 25, 3-fluoro-N-(1H-indazol-6-yl)-2-methylbenzenesulfonamide] gave a half-maximal inhibitory concentration (IC50) of 500 to 1000 nM.

In the case of `CCC(Nc1ccc2nc[nH]c(=O)c2c1)c1nccc(Cl)c1Cl` (racemic) [Example 155, 6-((1-(3,4-dichloropyridin-2-yl)propyl)amino)quinazolin-4(3H)-one], the IC50 was 100 to 500 nM.

Molecule `O=c1[nH]ccc2ccc(NC(CCO)c3cccc(Cl)c3Cl)cc12` (racemic) [Compound 252, 7-((1-(2,3-dichlorophenyl)-3-hydroxypropyl)amino)isoquinolin-1(2H)-one] came in with a half-inhibitory concentration (IC50) of less than 100 nM.

Molecule `Cc1cc(F)cc(C(Nc2ccc3c(c2)C(=O)NCC3)C(C)C)c1` (racemic) [Example 144, 7-((1-(3-fluoro-5-methylphenyl)-2-methylpropyl)amino)-3,4-dihydroisoquinolin-1(2H)-one] registered an IC50 of 100 to 500 nM.

Molecule `Cc1c2ccc(NC(C)c3nc(Cl)c(Cl)s3)cc2nn1CC(N)=O` (single isomer, unassigned) [Compound 312B] displayed a 50% inhibitory concentration (IC50) greater than 1000 nM.

Molecule `CC(Nc1ccc2c(c1)NC(=O)C21CC1)c1nc(Cl)c(Cl)s1` (racemic) [Example 244, 6′-((1-(4,5-dichlorothiazol-2-yl)ethyl)amino)spiro[cyclopropane-1,3′-indolin]-2′-one] showed a 50% inhibitory concentration (IC50) of less than 100 nM.
